For 25 molecules, Kb and melting point results are on record in patent US10577332B2, “Tetrazole derivatives” (Hoffmann-La Roche Inc., priority 2015, dated 2020).

One data set has as its target T1, human EAAT3 (Homo sapiens, UniProt P43005).
T1 construct: expressed in transfected cells
T1 sequence (P43005 1-524): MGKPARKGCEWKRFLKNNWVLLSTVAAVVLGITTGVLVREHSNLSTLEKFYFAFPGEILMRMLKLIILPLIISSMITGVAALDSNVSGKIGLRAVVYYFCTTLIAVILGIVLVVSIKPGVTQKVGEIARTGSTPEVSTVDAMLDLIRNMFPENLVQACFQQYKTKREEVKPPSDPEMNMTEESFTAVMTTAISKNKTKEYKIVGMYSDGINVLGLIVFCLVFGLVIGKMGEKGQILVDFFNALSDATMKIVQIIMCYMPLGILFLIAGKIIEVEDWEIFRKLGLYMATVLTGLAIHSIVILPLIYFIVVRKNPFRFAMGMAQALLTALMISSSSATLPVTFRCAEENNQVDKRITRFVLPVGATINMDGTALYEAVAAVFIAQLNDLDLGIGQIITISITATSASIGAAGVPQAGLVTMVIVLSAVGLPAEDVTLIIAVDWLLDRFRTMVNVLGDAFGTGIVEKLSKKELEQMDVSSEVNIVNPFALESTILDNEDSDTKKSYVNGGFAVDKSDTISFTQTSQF
Briefly: FLIPR Membrane Potential (FMP) assay. Type of data set: cell-based. Particulars: HEK-293 cells stably expressing human EAAT3; antagonist applied 15 min before L-glutamate at EC80; Kb by Cheng-Prusoff from IC50. How it is done: The FLIPR Membrane Potential (FMP) Assay
HEK-293 cells stably expressing human EAAT3 were seeded at 55 000 cells/well in growth medium (DMEM glutamate free (Invitrogen 11960-044), 1% Pen Strep (10 ml/l GIBCO BRL No 15140-023), 10% FCS non dialysed heat inactivated, 5 mg/l puromycin) in poly-D-lysine treated 96-well black microtiter plates with clear-bottom. After 24 h, the growth medium was removed and 100 μl/well of Krebs buffer (140 mM NaCl, 4.7 mM KCl, 2.5 mM CaCl2, 1.2 mM MgCl2, 11 mM HEPES, 10 mM D-glucose, pH=7.4) added. The cells were then loaded by adding 100 μl/well FMP assay dye (FLIPR Membrane Potential assay reagent, Molecular Devices). The 96-well plates were then incubated at 37° C. for 1 h. The depolarization of the cells will cause more dye to enter in the cells, where it will bind to intracellular proteins and lipids and cause an increase in the fluorescence signal. Antagonist potency at human EAAT3 was determined by using L-glutamate as agonist at a concentration which gives 80% of the maximum response. The antagonists were applied 15 min before the application of the agonist L-glutamate. The assays were performed at room temperature and measurements done by using a Fluorometric Imaging Plate Reader (FLIPR, Molecular Devices) and filter #2. Responses were measured as peak increase in fluorescence minus basal (i.e. fluorescence without addition of L-glutamate). Kb was determined using the Cheng-Prusoff equation Kb=IC50/[1+(A/EC50)], where IC50 is the concentration of the antagonist producing 50% inhibition, A is the concentration of the agonist against which the IC50 is being determined (at EC80) and EC50 is the concentration of the agonist producing 50% […].

Each structure is given as a SMILES string.

Broadly, the Kb is the equilibrium dissociation constant of an antagonist, usually derived from a functional assay. A higher Kb goes with a less potent antagonist. For orientation: melting point means the temperature, or range, at which the solid turns liquid. In turn, `CC1(NC(=O)c2cc(-c3ccc(Cl)cc3)cc(-n3nnnc3C(C)(C)C)c2)CCS(=O)(=O)C1` (racemic) [Example 89, (RS)-3-(5-tert-Butyltetrazol-1-yl)-5-(4-chlorophenyl)-N-(3-methyl-, 1-dioxothiolan-3-yl)benzamide] gave a melting point of 187 °C. Besides, the antagonist equilibrium constant (Kb) on human EAAT3 came to 250 nM.
The molecule `CC(C)(NC(=O)c1cc(-c2ccc(Cl)cc2)cc(-n2nnnc2C2CC2)c1)C(F)(F)F` [Example 54, 3-(4-Chlorophenyl)-5-(5-cyclopropyltetrazol-1-yl)-N-(1,1,1-trifluoro-2-methylpropan-2-yl)-benzamide] returned a melting point of 91.5 °C. In addition, the Kb on human EAAT3 amounted to 210 nM.
The corresponding values for `CC(C)(C)NC(=O)c1cc(-c2ccc(C(F)(F)F)cc2)cc(-n2cnnn2)c1` [Example 3, N-tert-Butyl-3-(tetrazol-1-yl)-5-[4-(trifluoromethyl)phenyl]-benzamide] are 108 °C and 470 nM.
`Cc1nnnn1-c1cc(C(=O)NC(C)(C)C)cc(-c2ccc(F)cc2)c1` [Example 80, N-tert-Butyl-3-(4-fluorophenyl)-5-(5-methyltetrazol-1-yl)-benzamide] had a melting point of 80 °C. At human EAAT3, the Kb was found to be 180 nM.
The corresponding values for `Cc1cc(-c2cc(C(=O)NC(C)(C)C(F)(F)F)cc(-n3nnnc3C(C)(C)C)c2)ccc1F` [Example 118, 3-(5-tert-Butyltetrazol-1-yl)-5-(4-fluoro-3-methylphenyl)-N-(1,1,1-trifluoro-2-methylpropan-2-yl)-benzamide] are 203 °C and 540 nM.
The corresponding values for `Cc1ccc(-c2cc(C(=O)NC(C)(C)C)cc(-n3nnnc3C(C)(C)C)c2)cc1F` [Example 108, N-tert-Butyl-3-(5-tert-butyltetrazol-1-yl)-5-(3-fluoro-4-methylphenyl)-benzamide] are 227.5 °C and 420 nM.
The corresponding values for `CCC(C)(C)NC(=O)c1cc(-c2ccc(F)cc2)cc(-n2nnnc2C2CC2)c1` [Example 68, 3-(5-Cyclopropyltetrazol-1-yl)-5-(4-fluorophenyl)-N-(2-methylbutan-2-yl)-benzamide] are 74 °C and 180 nM.
On to `CC(C)(CO)NC(=O)c1cc(-c2ccc(F)cc2)cc(-n2nnnc2C(C)(C)C)c1` [Example 94, 3-(5-tert-Butyltetrazol-1-yl)-5-(4-fluorophenyl)-N-(1-hydroxy-2-methylpropan-2-yl)-benzamide], for which the melting point amounted to 212 °C. This molecule also displayed a Kb on human EAAT3 of 250 nM.
The corresponding values for `CCc1nnnn1-c1cc(C(=O)NC(C)(C)C(F)(F)F)cc(-c2ccc(C)cc2)c1` [Example 26, 3-(5-Ethyltetrazol-1-yl)-5-(4-methylphenyl)-N-(1,1,1-trifluoro-2-methylpropan-2-yl)-benzamide] are 78 °C and 300 nM.
The molecule `CC(C)(C#N)NC(=O)c1cc(-c2ccc(F)c(F)c2)cc(-n2nnnc2C(C)(C)C)c1` [Example 123, 3-(5-tert-Butyltetrazol-1-yl)-N-(2-cyanopropan-2-yl)-5-(3,4-difluorophenyl)-benzamide] showed a melting point of 263.5 °C. For the same molecule, the Kb on human EAAT3 turned out to be 220 nM.
Turning to `CC(C)(C#N)NC(=O)c1cc(-c2ccc(C(F)(F)F)cc2)cc(-n2nnnc2C(C)(C)C)c1` [Example 120, 3-(5-tert-Butyltetrazol-1-yl)-N-(2-cyanopropan-2-yl)-5-[4-(trifluoromethyl)-phenyl]benzamide], the melting point came out at 276.5 °C. Besides, the Kb on human EAAT3 worked out at 300 nM.
The corresponding values for `CCC(C)(C)NC(=O)c1cc(-c2ccc(Cl)cc2)cc(-n2cnnn2)c1` [Example 11, 3-(4-Chlorophenyl)-N-(2-methylbutan-2-yl)-5-(tetrazol-1-yl)-benzamide] are 206 °C and 76 nM.
The corresponding values for `CC(C)(C)NC(=O)c1cc(-c2ccc(C3CC3)cc2)cc(-n2nnnc2C(C)(C)C)c1` [Example 107, N-tert-Butyl-3-(5-tert-butyltetrazol-1-yl)-5-(4-cyclopropylphenyl)-benzamide] are 115 °C and 280 nM.
The corresponding values for `CC(C)(C)c1nnnn1-c1cc(C(=O)NC(C)(C)C2CC2)cc(-c2ccc(C3CC3)cc2)c1` [Example 114, 3-(5-tert-Butyltetrazol-1-yl)-5-(4-cyclopropylphenyl)-N-(2-cyclopropylpropan-2-yl)-benzamide] are 95 °C and 620 nM.
As to `CC(C)(C)c1nnnn1-c1cc(C(=O)NC(C)(C)C2CC2)cc(-c2ccc(F)c(F)c2)c1` [Example 113, 3-(5-tert-Butyltetrazol-1-yl)-N-(2-cyclopropylpropan-2-yl)-5-(3,4-difluorophenyl)-benzamide], the melting point was 90 °C. Moreover, the Kb at human EAAT3 came out at 350 nM.
The corresponding values for `Cc1nnnn1-c1cc(C(=O)NC(C)(C)C)cc(-c2ccc(Cl)cc2)c1` [Example 67, N-tert-Butyl-3-(4-chlorophenyl)-5-(5-methyltetrazol-1-yl)-benzamide] are 98 °C and 240 nM.
`Cc1ccc(-c2cc(C(=O)NC(C)(C)C)cc(-n3nnnc3C(C)(C)C)c2)cc1` [Example 102, N-tert-Butyl-3-(5-tert-butyltetrazol-1-yl)-5-(4-methylphenyl)-benzamide]: the melting point came out at 222 °C. Further, the Kb on human EAAT3 is 120 nM.
The corresponding values for `Cc1ccc(-c2cc(C(=O)NC(C)(C)C(F)(F)F)cc(-n3cnnn3)c2)cc1` [Example 13, 3-(4-Methylphenyl)-5-(tetrazol-1-yl)-N-(1,1,1-trifluoro-2-methylpropan-2-yl)-benzamide] are 190.5 °C and 650 nM.
The corresponding values for `CC(C)(CO)NC(=O)c1cc(-c2ccc(Cl)cc2)cc(-n2nnnc2C2CC2)c1` [Example 58, 3-(4-Chlorophenyl)-5-(5-cyclopropyltetrazol-1-yl)-N-(1-hydroxy-2-methylpropan-2-yl)-benzamide] are 110 °C and 360 nM.
The corresponding values for `CCC(C)(C)NC(=O)c1cc(-c2ccc(Cl)cc2)cc(-n2nnnc2C2CC2)c1` [Example 55, 3-(4-Chlorophenyl)-5-(5-cyclopropyltetrazol-1-yl)-N-(2-methylbutan-2-yl)-benzamide] are 78 °C and 480 nM.
Molecule `CC1(NC(=O)c2cc(-c3ccc(Cl)cc3)cc(-n3cnnn3)c2)CCS(=O)(=O)C1` (racemic) [Example 16, (RS)-3-(4-Chlorophenyl)-N-(3-methyl-1,1-dioxothiolan-3-yl)-5-(tetrazol-1-yl)-benzamide] came in with a melting point of 204 °C. For the same molecule, the Kb at human EAAT3 turned out to be 630 nM.
The corresponding values for `CC(C)(NC(=O)c1cc(-c2ccc(Cl)cc2)cc(-n2nnnc2C(F)(F)F)c1)C(F)(F)F` [Example 79, 3-(4-Chlorophenyl)-N-(1,1,1-trifluoro-2-methylpropan-2-yl)-5-[5-(trifluoromethyl)tetrazol-1-yl]-benzamide] are 166.5 °C and 200 nM.
The corresponding values for `CCC(C)(C)NC(=O)c1cc(-c2ccc(F)cc2)cc(-n2nnnc2C)c1` [Example 78, 3-(4-Fluorophenyl)-N-(2-methylbutan-2-yl)-5-(5-methyltetrazol-1-yl)-benzamide] are 83 °C and 110 nM.
For `CC(C)(NC(=O)c1cc(-c2ccc(F)cc2)cc(-n2nnnc2C2CC2)c1)C(F)(F)F` [Example 73, 3-(5-Cyclopropyltetrazol-1-yl)-5-(4-fluorophenyl)-N-(1,1,1-trifluoro-2-methylpropan-2-yl)-benzamide], the melting point turned out to be 81 °C. In addition, on human EAAT3, the antagonist equilibrium constant (Kb) was found to be 110 nM.
`Cc1ccc(-c2cc(C(=O)NC3(C)CCS(=O)(=O)C3)cc(-n3nnnc3C)c2)cc1` (racemic) [Example 24, (RS)-N-(3-Methyl-1,1-dioxothiolan-3-yl)-3-(4-methylphenyl)-5-(5-methyltetrazol-1-yl)-benzamide] had a melting point of 69 °C. The molecule also had an antagonist equilibrium constant (Kb) at human EAAT3 of 380 nM.
